This experiment concerns Plasmodium berghei. The experiment in a line: Luciferase/luciferin-expressing antifolate-resistant parasites were used to infect a culture of HepG2 cells that were pre-incubated with compounds. Infected hepatocytes emit light due to the luciferase reaction. Assay results are presented as the percent inhibition of light emission compared to control. […]. As to conditions: sporozoite; for IC90: read-out: LUCIFERASE INFECTION ASSAY - IC90. The class given is functional.

Setting [1] is: read-out: LUCIFERASE INFECTION ASSAY - IC50.

Data on 39 molecules can be found in ChEMBL document CHEMBL4483862, “Open-source discovery of chemical leads for next-generation chemoprotective antimalarials” (2018).

Each structure is given as a SMILES string.

What is called IC50 is the concentration at which inhibition is half-maximal. One may read the IC90 as the concentration at which the effect reaches the 90% level. With `CC(C)(C)c1cc2ncc(S(=O)(=O)c3ccc(Cl)cc3)c(N)n2n1`, the IC90 was greater than 9.04 µM. Under “HEPG2TOX_HILL_SLOPE 5.77, HEPG2TOX_R_SQUARED 0.0253, read-out: LUCIFERASE INFECTION ASSAY - IC50”, the IC50 is greater than 9.04 µM.

Consider `Fc1ccc(-c2csc(NCC3CCCO3)n2)cc1` (stereo not drawn), for which the IC90 is greater than 11.9 µM. In addition, the IC50 under setting [1] was greater than 11.9 µM.

In the case of `CCC(C)(C)c1ccc(Oc2ccc(NC(=O)COC(=O)c3ccc(Cl)c(S(N)(=O)=O)c3)cc2)cc1`, the IC90 was greater than 10 µM. In addition, under “PBLUC_HILL_SLOPE 2.55, PBLUC_R_SQUARED 0.138, read-out: LUCIFERASE INFECTION ASSAY - IC50”, the IC50 was 5.78 µM.

For the molecule `CC(C)(C)C(=O)COC(=O)c1ccc(-c2ccc(O)cc2)cc1`, the IC90 is greater than 10 µM. The IC50 under setting [1] is greater than 10 µM.

As to `Cc1ccc(NC(=O)NC(=O)CSc2nccn2Cc2ccccc2)c(C)c1`, the IC90 was greater than 10 µM. Besides, the IC50 (FFLUC_HILL_SLOPE 2.79, FFLUC_R_SQUARED 0.544, read-out: LUCIFERASE INFECTION ASSAY - IC50) is greater than 10 µM.

Consider `FC(F)(F)c1ccnc(N2CCN(c3ncnc4scc(-c5ccccc5)c34)CC2)n1`, for which the IC90 was greater than 7.46 µM. Besides, under setting [1], the IC50 was greater than 7.46 µM.

As for `CCCCn1c(N)c(-c2nc(CC(C)(C)C)c(C(=O)c3ccc(Br)s3)s2)c(=O)n(C)c1=O`, the IC90 is greater than 10 µM. For the same molecule, the IC50 (PBLUC_HILL_SLOPE 0.7, PBLUC_R_SQUARED 0.683, read-out: LUCIFERASE INFECTION ASSAY - IC50) was found to be 2.73 µM.

With `N#Cc1ccccc1OC(=O)Nc1ccc(OC(F)(F)F)cc1`, the IC90 was 3.62 µM. Moreover, the IC50 under setting [1] was determined as 3.31 µM.

Consider `CC1=C(C(=O)Nc2cc(C)on2)C(c2csc(-c3ccc(Cl)cc3)n2)NC(=S)N1C1CC1` (stereo not drawn), for which the IC90 worked out at 9.79 µM. Under “FFLUC_HILL_SLOPE 2.07, FFLUC_R_SQUARED 0.469, PBLUC_HILL_SLOPE 2.7, PBLUC_R_SQUARED 0.533, read-out: LUCIFERASE INFECTION ASSAY - IC50”, the IC50 worked out at 4.34 µM.

Consider `CCc1sc(C(=O)Nc2nc(-c3ccc(CNC(C)=O)cc3)cs2)cc1C`, for which the IC90 is greater than 10 µM. Moreover, the IC50 under setting [1] was greater than 10 µM.

On to `Cc1cccc(C2NC(=O)NC3=C2C(=O)N(CCc2ccccc2)C3)c1` (stereo not drawn), for which the IC90 is greater than 10 µM. The IC50 under setting [1] was greater than 10 µM.

On to `CCCCNC(=O)c1c(NC(=O)c2ccc(C(=O)OC)cc2)nc2ccccn12`, for which the IC90 is greater than 8.37 µM. Also, the 50% inhibitory concentration (IC50) (PBLUC_HILL_SLOPE 12.3, PBLUC_R_SQUARED 0.245, read-out: LUCIFERASE INFECTION ASSAY - IC50) is 7.76 µM.

With `FC(F)(F)c1c(-c2nc(-c3ccc(Cl)cc3)no2)cnn1-c1ccccc1`, the IC90 came out at 1.19 µM. The IC50 (PBLUC_HILL_SLOPE 1.45, PBLUC_R_SQUARED 0.734, read-out: LUCIFERASE INFECTION ASSAY - IC50) was determined as 0.262 µM.

In the case of `CCN(Cc1cccc(F)c1)C(=O)Nc1ccccc1-n1nc(C)cc1C`, the IC90 was greater than 10 µM. Also, the IC50 under setting [1] was greater than 10 µM.

On to `O=C(Nc1ccc2c[nH]nc2c1)C1=NN(c2ccccc2)C(=O)CC1`, for which the IC90 is greater than 9.9 µM. Moreover, under setting [1], the IC50 is greater than 9.9 µM.

On to `OC(CN1CC=C(c2c[nH]c3ccccc23)CC1)c1ccccc1` (stereo not drawn), for which the IC90 is greater than 10 µM. For the same molecule, the IC50 (HEPG2TOX_HILL_SLOPE 8.59, HEPG2TOX_R_SQUARED 0.892, PBLUC_HILL_SLOPE 2.5, PBLUC_R_SQUARED 0.397, read-out: LUCIFERASE INFECTION ASSAY - IC50) is 5.3 µM.

On to `FC(F)(F)c1ccc(/C=N/Nc2ccc(C(F)(F)F)cc2)cc1`, for which the IC90 was greater than 9.93 µM. The IC50 (PBLUC_HILL_SLOPE 3.36, PBLUC_R_SQUARED 0.386, read-out: LUCIFERASE INFECTION ASSAY - IC50) was determined as 5.72 µM.

In the case of `Cc1ccc(-n2c(=O)c3ccccc3n3c(SCc4nnnn4C4CC4)nnc23)c(C)c1`, the IC90 is greater than 10 µM. Also, the IC50 under setting [1] was greater than 10 µM.

For `COc1cc(/C=C/c2ccc3ccccc3n2)ccc1OCC(=O)Nc1cccc(C(F)(F)F)c1`, the IC90 is greater than 10 µM. Besides, the IC50 (PBLUC_HILL_SLOPE 1.81, PBLUC_R_SQUARED 0.402, read-out: LUCIFERASE INFECTION ASSAY - IC50) came out at 8.14 µM.

Turning to `COC(=O)c1c(C)[nH]c(C(=O)CSc2nnc(C)s2)c1C`, the IC90 was greater than 10 µM. For the same molecule, under setting [1], the IC50 was greater than 10 µM.

For `O=C(Nc1cccc(Cl)c1)Nc1nc2ccccc2[nH]1`, the IC90 was greater than 10 µM. In addition, under setting [1], the IC50 is greater than 10 µM.

As for `C=C(C)COc1ccc(-c2[nH]nc(C)c2-c2ccc(OC)c(OC)c2)c(O)c1`, the IC90 turned out to be 1.84 µM. Further, the IC50 (HEPG2TOX_HILL_SLOPE 1.51, HEPG2TOX_R_SQUARED 0.867, PBLUC_HILL_SLOPE 1.78, PBLUC_R_SQUARED 0.654, read-out: LUCIFERASE INFECTION ASSAY - IC50) is 0.535 µM.

Take `O=C(NNC(=O)c1ccccn1)c1ccc(C2SCCCS2)cc1`: the IC90 is greater than 10 µM. Also, the IC50 (FFLUC_HILL_SLOPE 16.5, FFLUC_R_SQUARED 0.524, PBLUC_HILL_SLOPE 17.5, PBLUC_R_SQUARED 0.078, read-out: LUCIFERASE INFECTION ASSAY - IC50) is 9.07 µM.

With `COc1cccc2c1N(S(=O)(=O)c1ccccc1C(F)(F)F)CCC2`, the IC90 is greater than 2 µM. Further, under setting [1], the IC50 was greater than 2 µM.

As for `COc1ccc(O)c(/C=N/NC(=O)c2ccc(CSc3nc(C)cc(C)n3)cc2)c1`, the IC90 came to 4.88 µM. Moreover, under “FFLUC_HILL_SLOPE 9.54, FFLUC_R_SQUARED 0.0205, HEPG2TOX_HILL_SLOPE 2.18, HEPG2TOX_R_SQUARED 0.934, PBLUC_HILL_SLOPE 9.18, PBLUC_R_SQUARED 0.547, read-out: LUCIFERASE INFECTION ASSAY - IC50”, the IC50 turned out to be 3.84 µM.

In the case of `O=C1C(=O)N(Cc2ccncc2)c2ccccc21`, the IC90 was greater than 13.9 µM. Also, the IC50 (PBLUC_HILL_SLOPE 4.07, PBLUC_R_SQUARED 0.778, read-out: LUCIFERASE INFECTION ASSAY - IC50) worked out at 8.1 µM.

Take `c1ccc(C(Nc2ncnc3sccc23)c2cccs2)cc1` (stereo not drawn): the IC90 was greater than 10 µM. Moreover, the IC50 (HEPG2TOX_HILL_SLOPE 2.82, HEPG2TOX_R_SQUARED 0.952, PBLUC_HILL_SLOPE 3.44, PBLUC_R_SQUARED 0.151, read-out: LUCIFERASE INFECTION ASSAY - IC50) was found to be 7.24 µM.

For the molecule `CN1/C(=C\C(=O)CSc2nc(N)c3ccsc3n2)C(C)(C)c2ccccc21`, the IC90 was greater than 10 µM. The IC50 (PBLUC_HILL_SLOPE 1.96, PBLUC_R_SQUARED 0.352, read-out: LUCIFERASE INFECTION ASSAY - IC50) was found to be 8.34 µM.

Take `COc1ccc(C(=O)Nc2nc3ccc(C)cn3c2C(=O)NC2CCCCC2)cc1`: the IC90 worked out at 3.1 µM. The IC50 (FFLUC_HILL_SLOPE 17.6, FFLUC_R_SQUARED 0.155, HEPG2TOX_HILL_SLOPE 2.69, HEPG2TOX_R_SQUARED 0.972, PBLUC_HILL_SLOPE 14.3, PBLUC_R_SQUARED 0.423, read-out: LUCIFERASE INFECTION ASSAY - IC50) is 2.66 µM.

With `COc1ccc(CNc2ncnc3scc(-c4ccccc4)c23)cc1OC`, the IC90 turned out to be 9.56 µM. Further, the IC50 (HEPG2TOX_HILL_SLOPE 0.633, HEPG2TOX_R_SQUARED 0.925, PBLUC_HILL_SLOPE 1.59, PBLUC_R_SQUARED 0.666, read-out: LUCIFERASE INFECTION ASSAY - IC50) is 2.4 µM.

For `Cc1ccc(N2C(=O)/C(=C/c3ccc(C(C)C)cc3)N=C2SCc2cccc(S(=O)(=O)N(C)C)c2)cc1`, the IC90 was greater than 10 µM. Further, for the setting “FFLUC_HILL_SLOPE 2.29, FFLUC_R_SQUARED 0.777, PBLUC_HILL_SLOPE 2.35, PBLUC_R_SQUARED 0.372, read-out: LUCIFERASE INFECTION ASSAY - IC50”, the IC50 came to 6.97 µM.

`O=C(Cc1ccc(-c2ccccc2)cc1)Nc1nc(-c2ccccn2)cs1`: the IC90 was greater than 10 µM. For the same molecule, for the setting “PBLUC_HILL_SLOPE 13.5, PBLUC_R_SQUARED 0.18, read-out: LUCIFERASE INFECTION ASSAY - IC50”, the IC50 stood at 9.2 µM.

Regarding `O=c1[nH]c2ccccc2c(-c2ccccc2)c1SCc1ccc2c(c1)OCO2`, the IC90 was greater than 10 µM. Besides, the IC50 (FFLUC_HILL_SLOPE 8.09, FFLUC_R_SQUARED 0.216, HEPG2TOX_HILL_SLOPE 4.47, HEPG2TOX_R_SQUARED 0.957, PBLUC_HILL_SLOPE 2.12, PBLUC_R_SQUARED 0.535, read-out: LUCIFERASE INFECTION ASSAY - IC50) was 4.38 µM.

Regarding `COc1ccc2c(Cn3ncc(Cl)c(Cl)c3=O)cc(=O)oc2c1`, the IC90 came to 7.19 µM. Further, the IC50 under setting [1] was 4.21 µM.

Consider `Cc1nnc(SCc2cc(=O)n3nc(C)c(-c4ccc(F)cc4)c3[nH]2)s1`, for which the concentration for an effect of 90% (IC90) is greater than 8.52 µM. Moreover, for the setting “PBLUC_HILL_SLOPE 8.42, PBLUC_R_SQUARED 0.168, read-out: LUCIFERASE INFECTION ASSAY - IC50”, the IC50 worked out at 7.52 µM.

Regarding `CCCOc1ccccc1NC(=O)COc1nnc2ccccn12`, the concentration for an effect of 90% (IC90) was greater than 10 µM. Under setting [1], the IC50 is greater than 10 µM.

Take `COc1ccccc1/C=C(\C#N)c1ccc(C)cc1`: the IC90 was greater than 13.2 µM. Besides, the IC50 (PBLUC_HILL_SLOPE 1.71, PBLUC_R_SQUARED 0.0423, read-out: LUCIFERASE INFECTION ASSAY - IC50) was 10.6 µM.

Regarding `FC(F)(F)c1cc(-n2c(-c3cccnc3Oc3ccccc3)n[nH]c2=S)cc(C(F)(F)F)c1`, the IC90 turned out to be 4.66 µM. Also, the IC50 (HEPG2TOX_HILL_SLOPE 12.4, HEPG2TOX_R_SQUARED 0.913, PBLUC_HILL_SLOPE 1.97, PBLUC_R_SQUARED 0.614, read-out: LUCIFERASE INFECTION ASSAY - IC50) was determined as 1.53 µM.

For `O=c1c2ccccc2[nH]c2ccccc12` [ACRIDONE], the IC90 turned out to be 5.03 µM. The IC50 (PBLUC_HILL_SLOPE 1.89, PBLUC_R_SQUARED 0.789, read-out: LUCIFERASE INFECTION ASSAY - IC50) stood at 1.57 µM.
